Experimental data taken from ChEMBL document CHEMBL3507680, “University of Dundee, Gates Library screen for HepG2 cell viability”.

Assay: Human HepG2 cell viability assay in 384 well format
Format: toxicity, cell-based
Parameters: dose 125 nL, time 70.5 hour; cytotoxicity at 70.5 h: concentration not given beside the values
Conditions: HepG2 cells, read-out: Inhibition

Compound | cytotoxicity at 70.5 h
O=C(Nc1nnc(C(F)F)s1)N[C@H](CCO)c1ccccc1 | 0.703%
CCOc1nnc(CN(C)C2CCCN(c3ccc(C)nn3)C2)s1 (stereo not given) | -3.1%
C[C@]1(O)CCN(Cc2ncccc2F)C[C@@H]1Oc1ccccc1 | -6.62%
O=C(CC1CCCO1)Nc1ccn(Cc2cccc3cccnc23)n1 (stereo not given) | -6.79%
CC(Cc1ccco1)NC(=O)Nc1ccc(S(C)(=O)=O)nc1 (stereo not given) | -2.2%
Cc1cnn(C2CCCN(C(=O)c3ccccc3-n3cnnn3)C2)c1 (stereo not given) | -3.2%
Fc1ccc(N2CCC3(CC2)CC(OCc2cccnc2)CO3)cc1 (stereo not given) | 0.624%
Cc1nc(NC(=O)CCc2c(C)nc3cc(O)nn3c2C)sc1C | -16.5%
CN(C)C1CCN(C(=O)CCc2cc(Br)cs2)CC1 | -0.796%
Cc1ccnc(Cn2cc(-c3cccc(C(C)N(C)C)c3)nn2)c1 (stereo not given) | -6.95%
CCCN(CC(F)F)c1cc(COC)nc2ncnn12 | -9.58%
Cc1ccccc1CCNC(=O)CN1CCCC(Cn2cncn2)C1 (stereo not given) | -3.82%
CC(O)CCN(C)S(=O)(=O)Cc1ccc(Cl)c(Cl)c1 (stereo not given) | -3.92%
COc1c(C2CCCN2Cc2cc(C)no2)c(C)nn1C (stereo not given) | -9.4%
COc1ccc(F)cc1C(=O)N1CCn2c(nnc2C(F)(F)F)C1 | -5.57%
CCS(=O)(=O)N1CCC[C@]2(C(=O)N(C)C)CN(c3ccccn3)C[C@@H]2C1 | -0.152%
CC(C)c1nc(CN2CCN(CC3CCCO3)CC2)cs1 (stereo not given) | -2.13%
CN(Cc1cccc(-n2cccn2)c1)Cc1c[nH]cn1 | -0.523%
COCC(=O)N1CCC2(CC1)CC(OC)c1ccc(F)cc12 (stereo not given) | -0.706%
Cc1ccc(S(=O)(=O)N2CSCC2C(=O)N(C)C2CC2)cc1Cl (stereo not given) | -12.2%
CC(C)c1ccc(CN2CCC(CNS(=O)(=O)C3CC3)C2)cc1 (stereo not given) | -3.87%
Cc1ccc(CN2CC[C@@H](N(C)C(C)C)[C@@H]2Cc2ccccc2)o1 | 2.54%

Compound | cytotoxicity at 70.5 h
O=c1oc(-c2cccs2)nn1CC(O)c1ccccc1F (stereo not given) | -4.66%
Cc1ccccc1CNC(=O)N1CC[C@@H]2CN(C)S(=O)(=O)[C@@H]2CC1 | 17.8%
CN(CCO)C[C@@H]1CN(Cc2ccccc2-c2ccccc2)C[C@@H]1CO | -2.36%
Cc1cccc(-c2nnn3c2COC(CNC(=O)N2CCCC2)C3)c1 (stereo not given) | 1.74%
O=C(Cc1ccc2c(c1)CCCC2)Nc1cccnc1N1CCSCC1 | -7.86%
COc1ccccc1OCc1cc(C(=O)N2CC(O)C2)n[nH]1 | -4.48%
O=C(NC1CCC1)[C@H]1CCS(=O)(=O)[C@@H]2CN(CCc3ccccc3)C[C@H]12 | 0.419%
c1ccc2sc(N3CCC4(CCCN4Cc4ncc[nH]4)CC3)nc2c1 | -7.49%
Cc1cs/c(=N\C(=O)Cn2nc(N3CCSCC3)ccc2=O)[nH]1 | -13.2%
Cc1nc(-c2ccncc2)ncc1C(C)NC(=O)C1=NN(C)C(=O)CC1 (stereo not given) | -8.41%
Cc1noc([C@]23COC[C@H]2CN(C(=O)CN(C)C)C3)n1 | -4.74%
Cc1nc(-c2ccc(S(=O)(=O)N3CCSCC3)cc2)co1 | -5.93%
Cc1ccncc1C(=O)N1CC[C@@]2(O)CCN(C3CCCCC3)C[C@H]2C1 | -3.63%
COCCN1CC[C@@H]2O[C@@H](COCC(=O)N3CCCC3)CC[C@@H]21 | -3.26%
CS(=O)(=O)c1ncc(CN2CCN3CCCC3C2)n1CC1CCCCC1 (stereo not given) | -6.4%
COCC(=O)N1CCC(c2cc(-c3ccc(OC)cc3)n[nH]2)C1 (stereo not given) | 10.4%
O=C(Cc1ccc(F)cc1)N1CCN(CC(O)c2ccccc2)CC1 (stereo not given) | -4.51%
Cc1nc(CO[C@@H]2CN(Cc3cccs3)[C@@H]3COC[C@@H]32)cs1 | -9.88%
CC(C)(Cn1cnc(-c2ccccc2)c1-c1ccco1)N1CCOCC1 | -10.2%
Cc1cc2[nH]c(CN3CCCCC3c3cccc(F)c3)cc(=O)n2n1 (stereo not given) | -5.96%
Cc1n[nH]cc1C(=O)N1CCCC(n2nnc3cc(F)ccc32)C1 (stereo not given) | -12.2%
CCCC(=O)NCC1CCCN(Cc2cc(C)c(C)o2)C1 (stereo not given) | 0.818%

Compound | cytotoxicity at 70.5 h
CCc1n[nH]c(C2CN(C(=O)c3cncnc3CC)CCO2)n1 (stereo not given) | 0.869%
COCCCC1(CO)CCCN(Cc2nccs2)C1 (stereo not given) | -7.41%
CS(=O)(=O)N1CCC(C(=O)N2CCC3(CC2)OCCCO3)CC1 | 54.6%
CS(=O)(=O)NCC1CCCN(C(=O)Nc2cccc3ccccc23)C1 (stereo not given) | -3.21%
CCc1nnc(NC(=O)Cc2c(C)nc(C)[nH]c2=O)s1 | 13.4%
CCCn1cnc2c1CN(S(=O)(=O)c1ccc(F)cc1)[C@H](C(=O)OC)C2 | 12.5%
CC(C(=O)N1CCN(c2ccc(F)cc2)CC1)n1ccnc1 (stereo not given) | -3.73%
CCc1nccn1C1CCCN(C(=O)Cc2ccc(OC)c(F)c2)C1 (stereo not given) | 4.08%
COc1ccc([C@@H]2CN(C(=O)CCCc3cn[nH]c3)C[C@H]2N(C)C)cc1 | 9.02%
CC(C)(C(=O)NCC1CCN(Cc2cccnc2)C1)c1ccccc1 (stereo not given) | -4.33%
CN1CCC2(CC1)C(=O)N(C)c1ccc(F)cc12 | 27.9%
Cn1ccc(C(=O)N2CCN(c3ncccn3)CC2)cc1=O | -20.4%
CCCN1CCCn2nc(CNC(=O)CC3CCS(=O)(=O)C3)cc2C1 (stereo not given) | -3.24%
Cc1ccc(NCCNC(=O)C2Cc3cc(C)c(C)cc3O2)nn1 (stereo not given) | -2.18%
Fc1cccc(CN2CCC(c3n[nH]c4ncccc34)CC2)c1F | -9.75%
COC(=O)CN(C(=O)c1ccc(Cl)cn1)c1cccc(F)c1 | -0.717%
CCOc1cncc(NCCc2nnc3ccccn23)n1 | -4.67%
CCc1nc2n(n1)CC(NCc1cnn(-c3ccccc3)n1)CC2 (stereo not given) | -9.79%
COCCN1CCC(CN(CC2CCCO2)C(=O)CNC(C)=O)CC1 (stereo not given) | -1.99%
CCS(=O)(=O)N1CCc2c(COC)cncc2C1 | 17.2%
O=C(NCc1ccc(-c2ccn[nH]2)cc1)N1CCC(N2CCCC2)C1 (stereo not given) | -5.88%
CC(C)N(C)C(=O)CN1C(=O)OC[C@@H]1c1ccccc1 | 0.286%

Compound | cytotoxicity at 70.5 h
CC(C)=CCN1C[C@H]2CC[C@@H]1CN(S(=O)(=O)c1cccnc1)C2 | 6.15%
CCc1nnc(CN(C)Cc2cccc(C(=O)Nc3nccs3)c2)o1 | -1.25%
CCCN1CCC(c2nc3ccc(-c4cccc(OC)c4)cn3n2)CC1 | -1.57%
CC(C)C[C@H](N)COc1cccc(F)c1Oc1ccc(Cl)cc1 | 26.2%
O=S(=O)(C1CC1)N1CCO[C@H]2[C@@H](Oc3cccnc3)CC[C@@H]21 | -5.72%
CCC(CNS(N)(=O)=O)Oc1ccccc1F (stereo not given) | -7.45%
CN(C(=O)COC1CCCCC1)C1CCN(CC2CCOC2)CC1 (stereo not given) | -1.92%
CCOC(=O)c1n[nH]cc1-c1cncn1CC(C)n1nc(C)cc1C (stereo not given) | -8.74%
CNC(=O)C1CN(C(C)C)CCN1c1nc(C)cc(C)n1 (stereo not given) | -10.7%
COCCc1noc(CN2CCCC2c2noc(C(C)C)n2)n1 (stereo not given) | 17.1%
O=C(c1ccsc1)N1C[C@@H]2OCCN(CCN3CCCC3)[C@@H]2C1 | 16.6%
O=C(NC[C@H]1OC[C@@H](NC2CCC(F)(F)CC2)[C@@H]1O)C1CCCC1 | -10.5%
Oc1cccc(CN2C[C@H]3CC[C@@H]2CN(Cc2ccc(F)cc2)C3)c1 | -1.41%
CCC(Nc1nc(C(C)C)nc2c1cnn2C)c1ccc(O)cc1 (stereo not given) | 5.5%
c1cc([C@H]2C[C@@H]3CCN(Cc4nccs4)C[C@H]3O2)ncn1 | -3.39%
COCCc1noc(Cn2ccc3ccccc3c2=O)n1 | -0.672%
CS(=O)(=O)N1Cc2ccccc2CC2(CCN(Cc3ccccn3)C2)C1 (stereo not given) | -10.1%
Cc1noc(CCCC(=O)N2CCCCC2CNS(C)(=O)=O)n1 (stereo not given) | -9.36%
CC(C)c1ccc(OCCNC(=O)N2CCS(=O)(=O)CC2)cc1 | -2.35%
CC(=O)NCc1nnn2c1CN(c1ncc(C)cn1)CCC2 | -20.5%
CC(=O)Nc1ccc2nc(-c3nccn3CCCN(C)C)ccc2c1 | -8.35%
Cc1ccc(-c2noc(CN3CCOC(Cn4cncn4)C3)n2)cc1 (stereo not given) | -7.15%

Compound | cytotoxicity at 70.5 h
CCn1c(NCc2cccnc2)nc2c(C)nn(C)c2c1=O | -4.56%
CC(C)Cc1noc(C2CCCN(C(=O)CCc3cnn(C)c3)C2)n1 (stereo not given) | -8.4%
CS(=O)(=O)N1CCC(C(=O)NC(Cc2ccsc2)c2nccs2)CC1 (stereo not given) | -20.6%
Cc1cnc(CNc2ccc(C(=O)NCc3ccco3)cc2C)o1 | 6.63%
Cc1nncn1CCNC(=O)C(C)(C)c1cccc(F)c1 | -7.47%
O=C(NCc1nc[nH]n1)c1cc(COc2ccccc2F)[nH]n1 | -3.89%
CCc1nnc2n1CCN(Cc1csc(-c3ncccn3)n1)C2 | -9.92%
CS(=O)(=O)N1CC[C@@H]2OC(COCC(=O)N3CCCC3)CC[C@@H]21 (stereo not given in full) | -6.9%
CCCN(CC1CC1)S(=O)(=O)c1ccc(NC(C)=O)cc1 | -1.65%
CCOC(=O)CNC(=O)NCc1cc(C)n(-c2ccccc2OC)c1C | 14.4%
CNc1cccc(C2CCCN(Cc3ncc[nH]3)C2)n1 (stereo not given) | -2.87%
CN1CCc2c(CNc3ncccn3)n[nH]c2C1 | 49.1%
CCOCC(=O)N1CCC2(CC1)COCCN2CCOC | -1.68%
CCS(=O)(=O)CC(=O)NCC1(c2c(F)cccc2F)CCCC1 | 18%
CCCc1noc(CN2CCC(c3ccnn3CCO)CC2)n1 | -0.994%
N#Cc1cc(NC(=O)c2ccncc2)ccc1N1CCC(O)CC1 | -3.68%
O=S(=O)(NCCCn1ccc2ccccc21)N1CCCCC1 | 16.7%
COc1ccccc1N1CCN(Cc2ncc(C)c(OC)c2C)CC1=O | -6.77%
Cc1csc(CN2CCC3(CC2)COC(COc2ccccn2)C3)n1 (stereo not given) | -5.82%
O=C(c1ccc[nH]1)N1CCC2(CC1)COCCN(c1nccs1)C2 | -1.47%
Cc1cc(C(=O)N2CCc3nc4sc(C)cc4c(=O)n3CC2)on1 | -2.99%
O=C(CCn1cccc1)N1CCc2[nH]nc(COc3ccccc3)c2C1 | -7.09%
